Publication PMC12748989 (Nature Communications, 2025)
Ends that are not written are not given here.

Columns and labels:
[1] = tested on: MCF10A cells; conditions: 24 h
[2] = tested on: TamR3 cells; conditions: 24 h
[3] = tested on: MCF7 cells; conditions: 24 h
[4] = tested on: MDA-MB-231 cells
[5] = tested on: PBMC; conditions: 12.5 µM

Molecule: CC[C@H](C)[C@H](N)C(=O)N[C@@H](CC(N)=O)C(=O)N[C@@H](CC(C)C)C(=O)N[C@@H](CCCCN)C(=O)N[C@@H](C)C(=O)N[C@@H](CC(C)C)C(=O)N[C@@H](C)C(=O)N[C@@H](C)C(=O)N[C@@H](CC(C)C)C(=O)N[C@@H](C)C(=O)N[C@@H](CCCCN)C(=O)N[C@@H](CCCCN)C(=O)N[C@H](C(=O)N[C@@H](CC(C)C)C(N)=O)[C@@H](C)CC [Mastoparan, reference compound]
- IC50 [1]: 16.9 µM
- IC50 [2]: 18.4 µM
- IC50 [3]: 21.8 µM

Molecule: IILKKLLDFILK-NH2 [peptide 29]
- IC50 [1]: 16.8 µM
- IC50 [2]: 14.6 µM
- IC50 [3]: 16.4 µM

Molecule: TLLTAIVKLFLK-NH2 [peptide 57]
- IC50 [1]: 14.9 µM
- IC50 [2]: 18.1 µM
- IC50 [3]: 25 µM

Molecule: LLQWLLKRLKAK-NH2 [peptide 11]
- IC50 [1]: 16 µM
- IC50 [2]: 11.4 µM
- IC50 [3]: 11.5 µM

Molecule: CC[C@H](C)[C@H](N)C(=O)N[C@@H](CC(N)=O)C(=O)N[C@@H](CC(C)C)C(=O)N[C@@H](CCCCN)C(=O)N[C@@H](C)C(=O)N[C@@H](CC(C)C)C(=O)N[C@@H](C)C(=O)N[C@@H](C)C(=O)N[C@@H](CC(C)C)C(=O)N[C@@H](C)C(=O)N[C@@H](CCCCN)C(=O)N[C@@H](CCCCN)C(=O)N[C@@H](CCCCN)C(=O)N[C@@H](CC(C)C)C(N)=O [K13]
- Average (percentage cell inhibition), Dmastoparan MDA-MB231 12.5uM [4]: 29.9957%
- Average (percentage cell inhibition), Mastoparan PBMC [5]: 5%

Molecule: CC[C@H](C)[C@H](N)C(=O)N[C@@H](CC(N)=O)C(=O)N[C@@H](CC(C)C)C(=O)N[C@@H](CCCCN)C(=O)N[C@@H](C)C(=O)N[C@@H](CC(C)C)C(=O)N[C@@H](C)C(=O)N[C@@H](C)C(=O)N[C@@H](Cc1c[nH]cn1)C(=O)N[C@@H](C)C(=O)N[C@@H](CCCCN)C(=O)N[C@@H](CCCCN)C(=O)N[C@H](C(=O)N[C@@H](CC(C)C)C(N)=O)[C@@H](C)CC [H9]
- Average (percentage cell inhibition), Dmastoparan MDA-MB231 12.5uM [4]: 18.6976%
- Average (percentage cell inhibition), Mastoparan PBMC [5]: -4.349%

Molecule: CC[C@H](C)[C@H](N)C(=O)N[C@@H](CC(N)=O)C(=O)N[C@@H](CC(C)C)C(=O)N[C@@H](CCCCN)C(=O)N[C@@H](C)C(=O)N[C@@H](CC(C)C)C(=O)N[C@@H](C)C(=O)N[C@@H](C)C(=O)N[C@@H](CC(C)C)C(=O)N[C@@H](C)C(=O)N[C@H](C(=O)N[C@@H](CCCCN)C(=O)N[C@H](C(=O)N[C@@H](CC(C)C)C(N)=O)[C@@H](C)CC)C(C)C [V11]
- Average (percentage cell inhibition), Dmastoparan MDA-MB231 12.5uM [4]: 50.781%
- Average (percentage cell inhibition), Mastoparan PBMC [5]: 14.2972%

Molecule: CC[C@H](C)[C@H](N)C(=O)N[C@@H](CC(N)=O)C(=O)N[C@@H](CC(C)C)C(=O)N[C@@H](CCCCN)C(=O)N[C@@H](C)C(=O)N[C@@H](CC(C)C)C(=O)N[C@@H](C)C(=O)N[C@@H](C)C(=O)N[C@@H](CCCCN)C(=O)N[C@@H](C)C(=O)N[C@@H](CCCCN)C(=O)N[C@@H](CCCCN)C(=O)N[C@H](C(=O)N[C@@H](CC(C)C)C(N)=O)[C@@H](C)CC [K9]
- Average (percentage cell inhibition), Dmastoparan MDA-MB231 12.5uM [4]: 18.9586%
- Average (percentage cell inhibition), Mastoparan PBMC [5]: -2.726%

Molecule: CC[C@H](C)[C@H](N)C(=O)N[C@@H](CC(N)=O)C(=O)N[C@@H](CC(C)C)C(=O)N[C@@H](CCCCN)C(=O)N[C@@H](C)C(=O)N[C@@H](CC(C)C)C(=O)N[C@@H](C)C(=O)N[C@@H](C)C(=O)N[C@@H](CC(C)C)C(=O)N[C@@H](C)C(=O)N[C@@H](CCCCN)C(=O)N[C@@H](CCCCN)C(=O)N[C@H](C(=O)N[C@@H](CCCCN)C(N)=O)[C@@H](C)CC [K14]
- Average (percentage cell inhibition), Dmastoparan MDA-MB231 12.5uM [4]: 21.2164%
- Average (percentage cell inhibition), Mastoparan PBMC [5]: 6.4564%

Molecule: CC[C@H](C)[C@H](N)C(=O)N[C@@H](CC(N)=O)C(=O)N[C@@H](CC(C)C)C(=O)N[C@@H](CCCCN)C(=O)N[C@@H](C)C(=O)N[C@@H](CC(C)C)C(=O)N[C@@H](C)C(=O)N[C@@H](C)C(=O)N[C@@H](CC(C)C)C(=O)N[C@@H](C)C(=O)N[C@@H](CCCCN)C(=O)N[C@@H](CCCCN)C(=O)N[C@@H](CCCNC(=N)N)C(=O)N[C@@H](CC(C)C)C(N)=O [R13]
- Average (percentage cell inhibition), Dmastoparan MDA-MB231 12.5uM [4]: 13.2975%
- Average (percentage cell inhibition), Mastoparan PBMC [5]: -5.395%

Molecule: CC[C@H](C)[C@H](N)C(=O)N[C@@H](Cc1c[nH]cn1)C(=O)N[C@@H](CC(C)C)C(=O)N[C@@H](CCCCN)C(=O)N[C@@H](C)C(=O)N[C@@H](CC(C)C)C(=O)N[C@@H](C)C(=O)N[C@@H](C)C(=O)N[C@@H](CC(C)C)C(=O)N[C@@H](C)C(=O)N[C@@H](CCCCN)C(=O)N[C@@H](CCCCN)C(=O)N[C@H](C(=O)N[C@@H](CC(C)C)C(N)=O)[C@@H](C)CC [H2]
- Average (percentage cell inhibition), Dmastoparan MDA-MB231 12.5uM [4]: 35.1529%
- Average (percentage cell inhibition), Mastoparan PBMC [5]: 5.675%

Molecule: CC[C@H](C)[C@H](N)C(=O)N[C@@H](CC(N)=O)C(=O)N[C@@H](CC(C)C)C(=O)N[C@@H](CCCCN)C(=O)N[C@@H](C)C(=O)N[C@@H](CC(C)C)C(=O)N[C@@H](C)C(=O)N[C@@H](CC(C)C)C(=O)N[C@@H](CC(C)C)C(=O)N[C@@H](C)C(=O)N[C@@H](CCCCN)C(=O)N[C@@H](CCCCN)C(=O)N[C@H](C(=O)N[C@@H](CC(C)C)C(N)=O)[C@@H](C)CC [L8]
- Average (percentage cell inhibition), Dmastoparan MDA-MB231 12.5uM [4]: 38.4504%
- Average (percentage cell inhibition), Mastoparan PBMC [5]: 16.9354%

Molecule: CC[C@H](C)[C@H](N)C(=O)N[C@@H](CC(N)=O)C(=O)N[C@@H](CC(C)C)C(=O)N[C@@H](CCCCN)C(=O)N[C@@H](C)C(=O)N[C@@H](CC(N)=O)C(=O)N[C@@H](C)C(=O)N[C@@H](C)C(=O)N[C@@H](CC(C)C)C(=O)N[C@@H](C)C(=O)N[C@@H](CCCCN)C(=O)N[C@@H](CCCCN)C(=O)N[C@H](C(=O)N[C@@H](CC(C)C)C(N)=O)[C@@H](C)CC [N6]
- Average (percentage cell inhibition), Dmastoparan MDA-MB231 12.5uM [4]: 7.402%
- Average (percentage cell inhibition), Mastoparan PBMC [5]: 6.768%

Molecule: CC[C@H](C)[C@H](N)C(=O)N[C@@H](CC(N)=O)C(=O)N[C@@H](CC(C)C)C(=O)N[C@@H](CCCCN)C(=O)N[C@@H](C)C(=O)N[C@@H](CC(C)C)C(=O)N[C@@H](C)C(=O)N[C@@H](Cc1c[nH]cn1)C(=O)N[C@@H](CC(C)C)C(=O)N[C@@H](C)C(=O)N[C@@H](CCCCN)C(=O)N[C@@H](CCCCN)C(=O)N[C@H](C(=O)N[C@@H](CC(C)C)C(N)=O)[C@@H](C)CC [H8]
- Average (percentage cell inhibition), Dmastoparan MDA-MB231 12.5uM [4]: 53.8201%
- Average (percentage cell inhibition), Mastoparan PBMC [5]: -4.293%

Molecule: CC[C@H](C)[C@H](N)C(=O)N[C@@H](CC(N)=O)C(=O)N[C@@H](CC(C)C)C(=O)N[C@@H](CCCCN)C(=O)N[C@@H](C)C(=O)N[C@@H](CC(C)C)C(=O)N[C@@H](C)C(=O)N[C@@H](C)C(=O)N[C@@H](CC(C)C)C(=O)N[C@@H](CC(N)=O)C(=O)N[C@@H](CCCCN)C(=O)N[C@@H](CCCCN)C(=O)N[C@H](C(=O)N[C@@H](CC(C)C)C(N)=O)[C@@H](C)CC [N10]
- Average (percentage cell inhibition), Dmastoparan MDA-MB231 12.5uM [4]: 9.754%
- Average (percentage cell inhibition), Mastoparan PBMC [5]: 1.8653%

Molecule: CC[C@H](C)[C@H](N)C(=O)N[C@@H](CC(N)=O)C(=O)N[C@@H](CC(C)C)C(=O)N[C@@H](CCCCN)C(=O)N[C@@H](C)C(=O)N[C@H](C(=O)N[C@@H](C)C(=O)N[C@@H](C)C(=O)N[C@@H](CC(C)C)C(=O)N[C@@H](C)C(=O)N[C@@H](CCCCN)C(=O)N[C@@H](CCCCN)C(=O)N[C@H](C(=O)N[C@@H](CC(C)C)C(N)=O)[C@@H](C)CC)C(C)C [V6]
- Average (percentage cell inhibition), Dmastoparan MDA-MB231 12.5uM [4]: 10.4144%
- Average (percentage cell inhibition), Mastoparan PBMC [5]: -4.76%

Molecule: CC[C@H](C)[C@H](N)C(=O)N[C@@H](CO)C(=O)N[C@@H](CC(C)C)C(=O)N[C@@H](CCCCN)C(=O)N[C@@H](C)C(=O)N[C@@H](CC(C)C)C(=O)N[C@@H](C)C(=O)N[C@@H](C)C(=O)N[C@@H](CC(C)C)C(=O)N[C@@H](C)C(=O)N[C@@H](CCCCN)C(=O)N[C@@H](CCCCN)C(=O)N[C@H](C(=O)N[C@@H](CC(C)C)C(N)=O)[C@@H](C)CC [S2]
- Average (percentage cell inhibition), Dmastoparan MDA-MB231 12.5uM [4]: 39.9159%
- Average (percentage cell inhibition), Mastoparan PBMC [5]: 20.6714%
